Columns and labels:
leucine aminopeptidase = molecular target: T1, leucine aminopeptidase (Sus scrofa, UniProt P28839); experiment: In vitro stability in leucine aminopeptidase solution; details: pH 7.4; for half-life at 0.1 mg/ml: isolated enzyme aminopeptidase
T1 sequence (P28839 1-519): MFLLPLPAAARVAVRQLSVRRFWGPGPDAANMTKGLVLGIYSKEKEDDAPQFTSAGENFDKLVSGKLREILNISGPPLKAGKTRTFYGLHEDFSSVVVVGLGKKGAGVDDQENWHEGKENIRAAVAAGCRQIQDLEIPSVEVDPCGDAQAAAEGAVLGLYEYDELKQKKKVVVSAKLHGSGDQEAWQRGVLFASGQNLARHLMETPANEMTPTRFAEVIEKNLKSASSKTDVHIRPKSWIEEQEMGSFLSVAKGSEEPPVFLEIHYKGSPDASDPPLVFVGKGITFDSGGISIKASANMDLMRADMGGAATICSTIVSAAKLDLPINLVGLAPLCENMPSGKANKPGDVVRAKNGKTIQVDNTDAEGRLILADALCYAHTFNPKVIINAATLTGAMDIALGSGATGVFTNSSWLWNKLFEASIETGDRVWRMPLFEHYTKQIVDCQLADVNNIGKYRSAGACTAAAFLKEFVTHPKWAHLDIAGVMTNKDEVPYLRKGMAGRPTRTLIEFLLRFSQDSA
Method: (§1) A SHT200D block heater from Stuart Scientific was used for heating of the peptide/enzyme solutions during the stability experiments. The degradation of the test compounds was studied at 37° C. in 50 mM phosphate buffer solutions of pH 7.4 containing leucine aminopeptidase (25 U/ml) or carboxypeptidase A (1 U/ml) or 100 mM ammoniumbicarbonate buffer of pH 8.0 containing dipeptidyl aminopeptidase IV (0.5 U/ml). Experiments were initiated by addition of an aliquot (100 μl) of a stock solution (1 mg/ml) of the peptide in water to 900 μl preheated enzyme solution in an Eppendorf microvial giving an initial concentration of 0.1 mg/ml (˜1.7·10−5-1.8·10−5 M) of the peptide. The peptide/enzyme solution was kept at 37° C. and at appropriate time intervals samples of 100 μl were withdrawn from the peptide/enzyme solution and mixed thoroughly with 20 μl 25% TFA in acetonitrile in order to stop the enzymatic degradation process. The inactivated samples were transferred to autosampler vials and analysed for content of intact test compound by HPLC as described below.
(§2) Samples from the stability experiments performed as described above were analysed by gradient HPLC analysis using the instrumentation described above and the following experimental conditions.
(§3) In vitro stability studies with the present peptides and peptide conjugates in the presence of selected proteolytic enzymes are applied as a tool for evaluating the protection of said peptides against proteolysis in vivo.
(§4) Water used was of highest quality obtained from a Milli-Q water treatment system (Millipore, Bedford, Mass., U.S.A.). Acetonitrile (ACN) was of super gradient quality obtained from Labscan Ltd. (Dublin, Ireland). […] Leucine aminopeptidase (EC 3.4.11.1), Carboxypeptidase A (EC 3.4.17.1) and Dipeptidyl peptidase (Dipeptidyl aminopeptidase IV, EC 3.4.14.5) were all obtained from Sigma (St. Louis, Mo., U.S.A.). Gradient HPLC analysis was done using a Hewlett Packard HP 1100 HPLC system consisting of a HP 1100 Binary Pump, a HP 1100 Autosampler, A HP 1100 Column Thermostat and a HP 1100 Variable Wavelength Detector. Hewlett Packard Chem-station for LC software (Rev. A.06.01) was used for instrument control and data acquisition. A Vydac 238TP54 (150×4.6 mm I.D.) column packed with 5 μm, C18, 300 Å

carboxypeptidase A = molecular target: T2, carboxypeptidase A (Bos taurus, UniProt P00730); experiment: In vitro stability in carboxypeptidase A solution; details: pH 7.4; for half-life at 0.1 mg/ml: isolated enzyme carboxypeptidase
T2 sequence (P00730 111-419): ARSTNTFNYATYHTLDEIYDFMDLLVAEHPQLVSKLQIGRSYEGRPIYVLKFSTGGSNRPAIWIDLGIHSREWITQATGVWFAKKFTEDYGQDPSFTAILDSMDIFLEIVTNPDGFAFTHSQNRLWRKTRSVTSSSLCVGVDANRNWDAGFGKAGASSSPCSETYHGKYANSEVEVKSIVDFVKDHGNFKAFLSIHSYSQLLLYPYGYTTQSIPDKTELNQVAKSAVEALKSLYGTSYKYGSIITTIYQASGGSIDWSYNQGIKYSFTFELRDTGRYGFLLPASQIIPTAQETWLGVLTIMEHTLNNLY
Method: as §1, §2, §3, §4

[1] = molecular target: dipeptidyl aminopeptidase IV (Sus scrofa, UniProt P22411); experiment: In vitro stability in dipeptidyl aminopeptidase IV solution; details: pH 8; for half-life at 0.1 mg/ml: isolated enzyme dpp iv
Chain of dipeptidyl aminopeptidase IV (P22411 whole entry): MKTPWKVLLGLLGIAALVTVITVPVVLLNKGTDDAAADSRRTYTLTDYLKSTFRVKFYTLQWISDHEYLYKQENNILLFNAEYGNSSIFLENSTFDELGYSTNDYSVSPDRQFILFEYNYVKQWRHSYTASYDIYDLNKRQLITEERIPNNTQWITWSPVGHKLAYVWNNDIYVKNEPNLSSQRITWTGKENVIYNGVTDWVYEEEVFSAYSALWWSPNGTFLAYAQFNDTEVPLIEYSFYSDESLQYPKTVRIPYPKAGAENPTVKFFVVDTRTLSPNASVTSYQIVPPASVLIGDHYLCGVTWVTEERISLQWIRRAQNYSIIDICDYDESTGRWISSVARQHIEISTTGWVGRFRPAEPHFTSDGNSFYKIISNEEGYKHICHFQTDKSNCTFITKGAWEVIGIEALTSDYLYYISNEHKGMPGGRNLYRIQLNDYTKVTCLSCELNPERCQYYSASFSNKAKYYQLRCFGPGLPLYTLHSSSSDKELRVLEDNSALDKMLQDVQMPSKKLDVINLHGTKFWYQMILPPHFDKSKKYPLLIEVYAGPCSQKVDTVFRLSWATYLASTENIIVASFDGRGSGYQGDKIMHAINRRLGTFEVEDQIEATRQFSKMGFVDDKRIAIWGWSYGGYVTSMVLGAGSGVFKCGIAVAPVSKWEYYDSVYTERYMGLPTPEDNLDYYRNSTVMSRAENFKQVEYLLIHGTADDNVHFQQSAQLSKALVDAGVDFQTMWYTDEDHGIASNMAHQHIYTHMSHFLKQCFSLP
Method: as §1, §2, §3, §4

ob/ob mice = experiment: Blood glucose levels in ob/ob mice after peroral and intraperitoneal administration (Example 25); assay type: in vivo
From the text: Forty female diabetic ob/ob mice (Umeä strain, Bomholtgaard), which are obese due to a dominant mutant leptin (Tomita, T., Doull, V., Pollock, H. G., and Krizsan, D. 1992. Pancreatic islets of obese hyperglycemic mice (ob/ob). Pancreas 7: 367-75) were housed (3 mice/cage) under controlled ambient conditions following a 12:12-h light: dark cycle and fed standard Altromin no 1324 diet with free access to tap water. At arrival the animals were 8 weeks of age. The mice were allowed 2 weeks of acclimatization before experiments were initiated. […] Handling of the mice one and three days before the experiment was performed in order to reduce stress-induced BG excursions. On the day of the experiment, blood was taken from the tip of the tail 2-3 hours after the light was turned on. A single drop of blood (<5 μl) was dropped on the glucose strip for analysis and measured by an Elite Autoanalyser, Bayer, Denmark. Whole blood glucose (BG) concentration was analysed by the immobilised glucose oxidase method. […] Six animals with BG <5.8 mM were excluded from the study (total n=36). The remaining animals were stratified based on their BG levels in order to ensure that the mean BG was similar among groups.
Various concentrations of each peptide are administered orally and intraperitoneally to ob/ob mice to determine if these compounds affect blood glucose levels. The experimental conditions used were the same as described in Example 24.
Solutions are prepared on the morning of dosing, immediately before the animals are administered. The same solutions are used for both peroral and interperitoneal administration. All peptides are dissolved in sterile isotonic NaCl and given in a volume of 0.2 ml. As negative control, saline is administered perorally.
In order to analyse the effects of the compounds, the absolute and the relative (% of t=0) difference from baseline was calculated for each time point.

Row | SMILES | half-life at 0.1 mg/ml (leucine aminopeptidase) | half-life at 0.1 mg/ml (carboxypeptidase A) | half-life at 0.1 mg/ml [1] | blood glucose relative to baseline (ob/ob mice; 1 μg po, 1 hour) | blood glucose relative to baseline (ob/ob mice; 1 μg po, 2 hours) | blood glucose relative to baseline (ob/ob mice; 1 μg po, 4 hours) | blood glucose relative to baseline (ob/ob mice; 10 μg po, 1 hour) | blood glucose relative to baseline (ob/ob mice; 10 μg po, 2 hours) | blood glucose relative to baseline (ob/ob mice; 10 μg po, 4 hours) | blood glucose relative to baseline (ob/ob mice; 100 μg ip, 1 hour) | blood glucose relative to baseline (ob/ob mice; 100 μg ip, 2 hours) | blood glucose relative to baseline (ob/ob mice; 100 μg ip, 4 hours) | blood glucose relative to baseline (ob/ob mice; 100 μg po, 1 hour) | blood glucose relative to baseline (ob/ob mice; 100 μg po, 2 hours) | blood glucose relative to baseline (ob/ob mice; 100 μg po, 4 hours) | blood glucose relative to baseline (ob/ob mice; 1000 μg po, 1 hour) | blood glucose relative to baseline (ob/ob mice; 1000 μg po, 2 hours) | blood glucose relative to baseline (ob/ob mice; 1000 μg po, 4 hours) | other results
1 | CC[C@H](C)[C@H](NC(=O)[C@H](Cc1ccccc1)NC(=O)[C@H](CCC(=O)O)NC(=O)[C@H](CCCCN)NC(=O)[C@H](C)NC(=O)[C@H](C)NC(=O)[C@H](CCC(N)=O)NC(=O)CNC(=O)[C@H](CCC(=O)O)NC(=O)[C@H](CC(C)C)NC(=O)[C@H](Cc1ccc(O)cc1)NC(=O)[C@H](CO)NC(=O)[C@H](CO)NC(=O)[C@@H](NC(=O)[C@H](CC(=O)O)NC(=O)[C@H](CO)NC(=O)[C@@H](NC(=O)[C@H](Cc1ccccc1)NC(=O)[C@@H](NC(=O)CNC(=O)[C@H](CCC(=O)O)NC(=O)CNC(=O)[C@@H](N)Cc1c[nH]cn1)[C@@H](C)O)[C@@H](C)O)C(C)C)C(=O)N[C@@H](C)C(=O)N[C@@H](Cc1c[nH]c2ccccc12)C(=O)N[C@@H](CC(C)C)C(=O)N[C@H](C(=O)N[C@@H](CCCCN)C(=O)NCC(=O)N[C@@H](CCCNC(=N)N)C(=O)N[C@@H](CCCCN)C(=O)N[C@@H](CCCCN)C(=O)N[C@@H](CCCCN)C(=O)N[C@@H](CCCCN)C(=O)N[C@@H](CCCCN)C(=O)N[C@@H](CCCCN)C(N)=O)C(C)C [Compound 4] | ~36 h | 2.42 h | 4.87 h | 99 % of t=0 | 89 % of t=0 | 84 % of t=0 | 98 % of t=0 | 95 % of t=0 | 81 % of t=0 | 83 % of t=0 | 58 % of t=0 | 56 % of t=0 | 72 % of t=0 | 70 % of t=0 | 58 % of t=0 | 128 % of t=0 | 72 % of t=0 | 78 % of t=0 | 
2 | CCCCCCCCCCCCCCCC(=O)NCCCC[C@H](NC(=O)[C@H](CCCNC(=N)N)NC(=O)CNC(=O)[C@H](CCCCN)NC(=O)[C@@H](NC(=O)[C@H](CC(C)C)NC(=O)[C@H](Cc1c[nH]c2ccccc12)NC(=O)[C@H](C)NC(=O)[C@@H](NC(=O)[C@H](Cc1ccccc1)NC(=O)[C@H](CCC(=O)O)NC(=O)[C@H](CCCCN)NC(=O)[C@H](C)NC(=O)[C@H](C)NC(=O)[C@H](CCC(N)=O)NC(=O)CNC(=O)[C@H](CCC(=O)O)NC(=O)[C@H](CC(C)C)NC(=O)[C@H](Cc1ccc(O)cc1)NC(=O)[C@H](CO)NC(=O)[C@H](CO)NC(=O)[C@@H](NC(=O)[C@H](CC(=O)O)NC(=O)[C@H](CO)NC(=O)[C@@H](NC(=O)[C@H](Cc1ccccc1)NC(=O)[C@@H](NC(=O)CNC(=O)[C@H](CCC(=O)O)NC(=O)CNC(=O)[C@@H](N)Cc1c[nH]cn1)[C@@H](C)O)[C@@H](C)O)C(C)C)[C@@H](C)CC)C(C)C)C(=O)N[C@@H](CCCCN)C(=O)N[C@@H](CCCCN)C(=O)N[C@@H](CCCCN)C(=O)N[C@@H](CCCCN)C(=O)N[C@@H](CCCCN)C(=O)N[C@@H](CCCCN)C(N)=O [Compound 5] |  |  |  | 111 % of t=0 | 133 % of t=0 | 114 % of t=0 | 90 % of t=0 | 120 % of t=0 | 126 % of t=0 | 63 % of t=0 | 50 % of t=0 | 52 % of t=0 | 97 % of t=0 | 140 % of t=0 | 107 % of t=0 | 73 % of t=0 | 75 % of t=0 | 67 % of t=0 | half-life (leucine aminopeptidase): > 72 h; half-life (carboxypeptidase A): > 48 h; half-life [1]: 7.33 h
3 | CC[C@H](C)[C@H](NC(=O)[C@H](Cc1ccccc1)NC(=O)[C@H](CCC(=O)O)NC(=O)[C@H](CCCCN)NC(=O)[C@H](C)NC(=O)[C@H](C)NC(=O)[C@H](CCC(N)=O)NC(=O)CNC(=O)[C@H](CCC(=O)O)NC(=O)[C@H](CC(C)C)NC(=O)[C@H](Cc1ccc(O)cc1)NC(=O)[C@H](CO)NC(=O)[C@H](CO)NC(=O)[C@@H](NC(=O)[C@H](CC(=O)O)NC(=O)[C@H](CO)NC(=O)[C@@H](NC(=O)[C@H](Cc1ccccc1)NC(=O)[C@@H](NC(=O)CNC(=O)[C@H](CCC(=O)O)NC(=O)CNC(=O)[C@@H](N)Cc1cnc[nH]1)[C@@H](C)O)[C@@H](C)O)C(C)C)C(=O)N[C@@H](C)C(=O)N[C@@H](Cc1c[nH]c2ccccc12)C(=O)N[C@@H](CC(C)C)C(=O)N[C@H](C(=O)N[C@@H](CCCCN)C(=O)NCC(=O)N[C@@H](CCCNC(=N)N)C(N)=O)C(C)C [Compound (iii), reference compound] | 11.6 h | 2.12 h | 0.933 h |  |  |  |  |  |  |  |  |  |  |  |  |  |  |  | 

From USRE45313E1, “Exendin variant peptides” (priority 1999, dated 2014)
